Test results: ChEMBL document CHEMBL1158616, “Biological activity of modified and exchanged 2-amino-5-nitrothiazole amide analogues of nitazoxanide” (2010)
In brackets after ≈: the same amount, converted by molar mass.

Legend:
Helicobacter pylori [1] = assay: Inhibition of Helicobacter pyroli PFOR expressed in Escherichia coli at 40 uM
Helicobacter pylori [2] = assay: Antimicrobial activity against Helicobacter pylori; type: functional
Campylobacter jejuni = assay: Antimicrobial activity against Campylobacter jejuni; type: functional
Clostridioides difficile = assay: Antimicrobial activity against Clostridium difficile; type: functional

**Q.** For O=C(Nc1ncc([N+](=O)[O-])s1)c1cccs1 [TENONITROZOLE], which inhibition (Helicobacter pylori [1]) is on record?
**A.** 50%

**Q.** And the MIC (Helicobacter pylori [2])?
**A.** 2.9 µM (≈ 0.74 µg/mL)

**Q.** And the MIC (Campylobacter jejuni)?
**A.** 1 µM (≈ 0.255 µg/mL)

**Q.** And the MIC (Clostridioides difficile)?
**A.** 2.9 µM (≈ 0.74 µg/mL)

**Q.** What does the source list for O=C(Nc1nc(Cl)c([N+](=O)[O-])s1)c1ccccc1?
**A.** inhibition (Helicobacter pylori [1]): 59%; MIC (Helicobacter pylori [2]): 8.8 µM (≈ 2.5 µg/mL); MIC (Campylobacter jejuni): > 28.2 µM; MIC (Clostridioides difficile): 7 µM (≈ 1.99 µg/mL)

**Q.** Which inhibition (Helicobacter pylori [1]) does the source give for O=C(Nc1sc([N+](=O)[O-])cc1[N+](=O)[O-])c1cccc(C(F)(F)F)c1 here?
**A.** 47%

**Q.** And the MIC (Helicobacter pylori [2])?
**A.** 0.5 µM (≈ 0.181 µg/mL)

**Q.** What about the MIC (Campylobacter jejuni) of the same compound?
**A.** 4.2 µM (≈ 1.52 µg/mL)

**Q.** What about the MIC (Clostridioides difficile) of the same compound?
**A.** 2.1 µM (≈ 0.759 µg/mL)

**Q.** O=C(Nc1ncc([N+](=O)[O-])s1)c1cccc(C(F)(F)F)c1 was tested. Which inhibition (Helicobacter pylori [1]) did it give?
**A.** 47%

**Q.** What about the MIC (Helicobacter pylori [2]) of the same compound?
**A.** 3.5 µM (≈ 1.11 µg/mL)

**Q.** And the MIC (Campylobacter jejuni)?
**A.** 0.4 µM (≈ 0.127 µg/mL)

**Q.** And the MIC (Clostridioides difficile)?
**A.** 4.7 µM (≈ 1.49 µg/mL)

**Q.** With O=C(Nc1nc(Cl)c([N+](=O)[O-])s1)c1cccc(C(F)(F)F)c1 as the compound, how does the inhibition (Helicobacter pylori [1]) read?
**A.** 27%

**Q.** What about the MIC (Helicobacter pylori [2]) of the same compound?
**A.** 5.7 µM (≈ 2 µg/mL)

**Q.** And the MIC (Campylobacter jejuni)?
**A.** > 22.7 µM

**Q.** And the MIC (Clostridioides difficile)?
**A.** 34.1 µM (≈ 12 µg/mL)

**Q.** What does the source list for O=C(Nc1nc(Cl)c([N+](=O)[O-])s1)c1cccs1?
**A.** inhibition (Helicobacter pylori [1]): 51%; MIC (Helicobacter pylori [2]): 6.9 µM (≈ 2 µg/mL); MIC (Campylobacter jejuni): > 13.8 µM; MIC (Clostridioides difficile): 13.8 µM (≈ 4 µg/mL)

**Q.** What does the source list for O=C(Nc1ncc([N+](=O)[O-])s1)c1ccoc1?
**A.** inhibition (Helicobacter pylori [1]): 56%; MIC (Helicobacter pylori [2]): 0.8 µM (≈ 0.191 µg/mL); MIC (Campylobacter jejuni): 2.1 µM (≈ 0.502 µg/mL); MIC (Clostridioides difficile): 12.5 µM (≈ 2.99 µg/mL)

**Q.** Which inhibition (Helicobacter pylori [1]) does the source give for CCCCCC(=O)Nc1sc([N+](=O)[O-])cc1[N+](=O)[O-] here?
**A.** 80%

**Q.** And the MIC (Helicobacter pylori [2])?
**A.** 2.6 µM (≈ 0.747 µg/mL)

**Q.** And the MIC (Campylobacter jejuni)?
**A.** 27.8 µM (≈ 7.99 µg/mL)

**Q.** And the MIC (Clostridioides difficile)?
**A.** 0.9 µM (≈ 0.259 µg/mL)

**Q.** Which inhibition (Helicobacter pylori [1]) does the source give for CC(=O)Oc1ccccc1C(=O)Nc1ncc([N+](=O)[O-])s1 [NITAZOXANIDE] here?
**A.** 54%

**Q.** What about the MIC (Helicobacter pylori [2]) of the same compound?
**A.** 13 µM (≈ 3.99 µg/mL)

**Q.** What about the MIC (Campylobacter jejuni) of the same compound?
**A.** 0.8 µM (≈ 0.246 µg/mL)

**Q.** And the MIC (Clostridioides difficile)?
**A.** 39.1 µM (≈ 12 µg/mL)

**Q.** For O=C(Nc1sc([N+](=O)[O-])cc1[N+](=O)[O-])c1ccccc1, which inhibition (Helicobacter pylori [1]) is on record?
**A.** 55%

**Q.** What about the MIC (Helicobacter pylori [2]) of the same compound?
**A.** 1.3 µM (≈ 0.381 µg/mL)

**Q.** And the MIC (Campylobacter jejuni)?
**A.** 27.3 µM (≈ 8.01 µg/mL)

**Q.** What about the MIC (Clostridioides difficile) of the same compound?
**A.** 0.9 µM (≈ 0.264 µg/mL)

**Q.** How did the inhibition (Helicobacter pylori [1]) turn out when CCCCCC(=O)Nc1nc(Cl)c([N+](=O)[O-])s1 was run?
**A.** 63%

**Q.** What about the MIC (Helicobacter pylori [2]) of the same compound?
**A.** 0.9 µM (≈ 0.25 µg/mL)

**Q.** What about the MIC (Campylobacter jejuni) of the same compound?
**A.** 28.8 µM (≈ 8 µg/mL)

**Q.** What about the MIC (Clostridioides difficile) of the same compound?
**A.** 36 µM (≈ 10 µg/mL)

**Q.** For CCCCCC(=O)Nc1ncc([N+](=O)[O-])s1, which inhibition (Helicobacter pylori [1]) is on record?
**A.** 70%

**Q.** What about the MIC (Helicobacter pylori [2]) of the same compound?
**A.** 0.5 µM (≈ 0.122 µg/mL)

**Q.** And the MIC (Campylobacter jejuni)?
**A.** 8.2 µM (≈ 1.99 µg/mL)

**Q.** And the MIC (Clostridioides difficile)?
**A.** 2.1 µM (≈ 0.511 µg/mL)

**Q.** For O=C(Nc1sc([N+](=O)[O-])cc1[N+](=O)[O-])c1ccoc1, which inhibition (Helicobacter pylori [1]) is on record?
**A.** 66%

**Q.** What about the MIC (Helicobacter pylori [2]) of the same compound?
**A.** 2.6 µM (≈ 0.736 µg/mL)

**Q.** And the MIC (Campylobacter jejuni)?
**A.** 3.5 µM (≈ 0.991 µg/mL)

**Q.** And the MIC (Clostridioides difficile)?
**A.** 0.4 µM (≈ 0.113 µg/mL)

**Q.** With O=C(Nc1sc([N+](=O)[O-])cc1[N+](=O)[O-])c1cccs1 as the compound, how does the inhibition (Helicobacter pylori [1]) read?
**A.** 77%

**Q.** What about the MIC (Helicobacter pylori [2]) of the same compound?
**A.** 2.5 µM (≈ 0.748 µg/mL)

**Q.** What about the MIC (Campylobacter jejuni) of the same compound?
**A.** 20 µM (≈ 5.99 µg/mL)

**Q.** And the MIC (Clostridioides difficile)?
**A.** 1 µM (≈ 0.299 µg/mL)
